Assay results as given in patent publication US4208409A, “N-[(phosphinyl or phosphinothioyl)amino]thio-methylcarbamates and pesticidal methods” (priority 1978, dated 1980).
Like-named read-outs stand apart in the source and are kept apart here.

What was measured:
southern armyworm (SAW) = test: southern armyworm mortality test (bush lima bean leaf dip); assay type: in vivo, Prodenia eridania Cramer; conditions: Spodoptera eridania, foliar
Excerpt: (§1) Representative pest species have been used, illustratively, order Lepidoptera, more specifically, the southern armyworm (SAW), (Prodenia eridania Cramer), the tobacco budworm (TBW), (Heliothis virescens), and the cabbage looper (CL) (Trichoplusia ni); order Acarina, more specifically, the two-spotted spider mite (TSSM) (Tetranychus urticae Koch); order Diptera, more specifically, the housefly (HF) (Musca domestica Linnaeus) or the yellow-fever mosquito (YFM) (Aedes aegypti); order Orthoptera, more specifically, the house cricket (HC) (Acheta domesticus Linnaeus) or the German cockroach (GC) (Blatella germanica Linnaeus); order Coleoptera, more specifically, the cotton boll weevil (BW) (Anthonomus grandis Boheman).
(§2) Preparation of tested chemicals--Analytical samples of each were dissolved in acetone. These acetone solutions were applied as such or portions of them were diluted with a Tween 20 "wet water" or a 10% sucrose "wet water". The "wet water" itself contained 0.132% v/v of Tween 20 (polyoxyethylene sorbitan monolaurate).
(§3) The southern armyworm and cabbage looper tests were effected with Henderson bush lima bean foliage characterized by two primary leaves per replicate. The leaves were dipped into a "wet water" emulsion of a test chemical, allowed to dry, and then placed on a moistened filter disk in a 9 cm plastic petri dish. Five larva of the respective test insects were put on the leaves, the cover of the petri dish was replaced, and it was set aside for future evaluation. Three replications for each treatment rate were prepared.
(§4) The southern armyworm, house cricket, boll weevil, house fly, and cabbage looper tests were held at 22° C., while the yellow fever mosquito larvae tests were held at 27° C.
(§5) The tests were evaluated for insect kill (including moribund and knocked down) after 24, 48, and sometimes 72 hours.

[1] = test system: yellow-fever mosquito (YFM); test: whole plant or invertebrate; assay type: in vivo; conditions: Aedes aegypti
Excerpt: as §1, §2
The yellow fever mosquito larvae test was effected by adding the appropriate amount of a wet water and acetone solution of the test chemical to 100 ml distilled water in a 5-ounce waxed paper cup. Ten mosquito larvae were added. […]
as §5

crystallinity = assay type: physicochemical
housefly (HF) = test: house fly mortality test (saturated cotton wad); assay type: in vivo, Musca domestica Linnaeus; conditions: Musca domestica
Excerpt: as §1, §2
(§6) The house fly and boll weevil tests were effected by saturating a golf-ball size wad of cotton with 10 ml of a "10% wet sugar water" preparation of the test chemical. […]
as §5

male rats = test: acute oral toxicity to male rats; assay type: in vivo, rat
[2] = acute oral toxicity to male rats; assay type: in vivo, rat; conditions: rat, in vivo
cabbage looper (CL) = test: cabbage looper mortality test (bush lima bean leaf dip); assay type: in vivo; conditions: Trichoplusia ni, foliar; for mortality at 11 ppm: rate 11 ppm
Excerpt: as §1, §2, §3, §4, §5

plant = test: phytotoxicity compared with the parent compound; assay type: in vivo; conditions: for average phytotoxicity index: after eight days, scale 0 = no damage, 10 = complete kill of plant
Excerpt: (§7) In other tests, the phytotoxicity, residual effectiveness, and animal toxicity of e.g. Methyl N-[[[[[(diethoxyphosphinothioyl)isopropylamino]thio]methylamino]carbonyl]oxy]ethanimidothioate were compared with the parent compound, methyl N-[[(methylamino)carbonyl]oxy]ethanimidothioate. […] The parent compound had corresponding index values of 4.25 and 5.0.

southern armyworm larvae = test: foliar residual effectiveness against southern armyworm larvae on lima bean seedlings; assay type: in vivo, Prodenia eridania Cramer
Excerpt: These compounds were also compared for their foliar residual effectiveness against southern armyworm larvae on lima bean seedlings. The compound Methyl N-[[[[[(diethoxyphosphinothioyl)isopropylamino]thio]methylamino]carbonyl]oxy]ethanimidothioate of this invention was producing 100 percent mortality seven weeks after the treatment was applied, whereas the activity of the parent compound at an equivalent rate had dissipated to 20% by the 14th day.

eggplant = test: phytotoxicity on the sensitive crop, eggplant, compared with the parent compound; assay type: in vivo
Excerpt: as §7

cotton boll weevil (BW) = test: boll weevil mortality test (saturated cotton wad); assay type: in vivo, Anthonomus grandis Boheman
Excerpt: as §1, §2, §6, §5

tobacco budworm (TBW) = test: tobacco budworm mortality test; assay type: in vivo; conditions: Heliothis virescens
Excerpt: as §1, §2, §5

[3] = Mammalian Toxicity, oral LD50, rat; conditions: in vivo

CCCN(SN(C)C(=O)Oc1cc(C)c(N(C)C)c(C)c1)P(=S)(OCC)OCC [4-(dimethylamino)-3,5-xylyl [[(diethoxyphosphinothioyl)-n-propylamino]thio]methylcarbamate]
mortality at 100 ppm (southern armyworm (SAW)): 100%
mortality at 0.6 ppm ([1]; rate 0.6 ppm): 100%

CSC(C)=NOC(=O)N(C)SN(C(C)(C)C)P1(=S)OCC(C)(C)CO1 [Methyl N-[[[[[(5,5-dimethyl-2-thioxo-1,3,2-dioxaphosphorinano-2-yl)tert-butylamino]thio]methylamino]carbonyl]oxy]ethanimidothioate]
crystallinity (crystallinity): extremely crystalline

CCOP(=S)(OCC)N(SN(C)C(=O)ON=C(C)SC)C(C)C [Methyl N-[[[[[(diethoxyphosphinothioyl)isopropylamino]thio]methylamino]carbonyl]oxy]ethanimidothioate]
mortality at 25 ppm (housefly (HF); HF, rate 25 ppm, read-out: Mortality): 80%
oral toxicity relative to the parent methylcarbamate (male rats): less than one fourth as toxic as the parent methylcarbamate
LD50 [2]: 105 mg/kg
mortality at 3.3 ppm (southern armyworm (SAW)): 100%
mortality at 3.3 ppm (cabbage looper (CL); CL, rate 3.3 ppm, read-out: Mortality): 100%
average phytotoxicity index (plant; 300 ppm): about 1.0
average phytotoxicity index (plant; 600 ppm): ~1.5
phytotoxicity compared with parent compound (plant; in general): in general less phytotoxic than the parent
mortality, foliar residual effectiveness (southern armyworm larvae; seven weeks after the treatment was applied, 70560 min): 100%
mortality at 1 ppm ([1]; rate 1.0 ppm): 100%
phytotoxicity compared with parent compound (eggplant): markedly less phytotoxic
mortality at 50 ppm (cotton boll weevil (BW); BW, rate 50 ppm): 60%

COP(=S)(c1ccccc1)N(SN(C)C(=O)ON=C(C)SC)C(C)C (centres unmarked) [Methyl N-[[[[[[methoxy(phenyl)phosphinothioyl]isopropylamino]thio]methylamino]carbonyl]oxy]ethanimidothioate]
mortality at 25 ppm (housefly (HF)): 50%
mortality at 3.3 ppm (southern armyworm (SAW)): 90%
mortality at 3.3 ppm (cabbage looper (CL)): 50%
mortality at 25 ppm (cotton boll weevil (BW)): 80%

CSC(C)=NOC(=O)N(C)SN(C1CCCCC1)P1(=S)OCC(C)(C)CO1 [Methyl N-[[[[[cyclohexyl(5,5-dimethyl-2-thioxo-1,3,2-dioxaphosphorinan-2-yl)amino]thio]methylamino]carbonyl]oxy]ethanimidothioate]
mortality at 11 ppm (tobacco budworm (TBW)): 95%
mortality at 11 ppm (southern armyworm (SAW)): 70%
mortality at 11 ppm (cabbage looper (CL); CL): 87.5%
LD50 [3]: > 8000 mg/kg

CSC(C)=NOC(=O)N(C)SN(C(C)C)P1(=S)OCCO1 [Methyl N-[[[[[isopropyl(2-thioxo-1,3,2-phospholan-2-yl)amino]thio]methylamino]carbonyl]oxy]ethanimidothioate]
mortality at 11 ppm (tobacco budworm (TBW)): 45%
mortality at 11 ppm (southern armyworm (SAW)): 40%
mortality at 11 ppm (cabbage looper (CL); CL): 48%

CSC(C)=NOC(=O)N(C)SN(C(C)C)P1(=S)OC(C)CC(C)(C)O1 (centres unmarked) [Methyl N-[[[[[isopropyl(4,4,6-trimethyl-2-thioxo-1,3,2-dioxaphosphorinan-2-yl)amino]thio]methylamino]carbonyl]oxy]ethanimidothioate]
mortality at 11 ppm (cabbage looper (CL); CL): 92.5%

CCC1(CC)COP(=S)(N(SN(C)C(=O)ON=C(C)SC)C(C)C)OC1 [Methyl N-[[[[[isopropyl(5,5-diethyl-2-thioxo-1,3,2-dioxaphosphorinan-2-yl)amino]thio]methylamino]carbonyl]oxy]ethanimidothioate]
mortality at 11 ppm (tobacco budworm (TBW)): 100%
mortality at 11 ppm (southern armyworm (SAW)): 60%
mortality at 11 ppm (cabbage looper (CL); CL): 95%
LD50 [3]: > 2000 mg/kg

CCC1(CC)COP(=S)(N(SN(C)C(=O)ON=C(C)SC)C2CCCCC2)OC1 [Methyl-[[[[[cyclohexyl(5,5-diethyl-2-thioxo-1,3,2-dioxaphosphorinan-2-yl)amino]thio]methylamino]carbonyl]oxy]ethanimidothioate]
mortality at 11 ppm (tobacco budworm (TBW)): 95%
mortality at 11 ppm (southern armyworm (SAW)): 70%
mortality at 11 ppm (cabbage looper (CL); CL): 77.5%
LD50 [3]: > 8000 mg/kg

CCN(SN(C)C(=O)ON=C(C)SC)P1(=S)OCC(C)(C)CO1 [Methyl-[[[[[ethyl(5,5-dimethyl-2-thioxo-1,3,2-dioxaphosphorinan-2-yl)amino]thio]methylamino]carbonyl]oxy]ethanimidothioate]
mortality at 11 ppm (cabbage looper (CL); CL): 56%

CSC(C)=NOC(=O)N(C)SN(C(C)C)P1(=S)OCCCO1 [Methyl-[[[[[isopropyl(2-thioxo-1,3,2-dioxaphosphorinan-2-yl)amino]thio]methylamino]carbonyl]oxy]ethanimidothioate]
mortality at 11 ppm (southern armyworm (SAW)): 56%

CNC(=O)ON=C(C)SC [methyl N-[[(methylamino)carbonyl]oxy]ethanimidothioate, reference compound]
LD50 [2]: 17 to 24 mg/kg
average phytotoxicity index (plant; 300 ppm): 4.25
average phytotoxicity index (plant; 600 ppm): 5.0
foliar residual activity (southern armyworm larvae; by the 14th day, at an equivalent rate): 20%
